What was measured:
[1] = target: T1, microsomal triglyceride transfer protein (MTP) (Mesocricetus auratus, UniProt P55158); assay: Inhibition of MTP activity: transfer of [3H]-triolein from donor liposomes to biotinylated LDL, SPA; assay type: biochemical; details: MTP from golden hamster liver; incubation 18-24 hours at 37° C.
T1 construct: The supernatant comprising the soluble MTP is dialysed; from tissue; host or cells: golden hamster liver microsomes, deoxycholate-solubilised supernatant
T1 sequence (P55158 19-895): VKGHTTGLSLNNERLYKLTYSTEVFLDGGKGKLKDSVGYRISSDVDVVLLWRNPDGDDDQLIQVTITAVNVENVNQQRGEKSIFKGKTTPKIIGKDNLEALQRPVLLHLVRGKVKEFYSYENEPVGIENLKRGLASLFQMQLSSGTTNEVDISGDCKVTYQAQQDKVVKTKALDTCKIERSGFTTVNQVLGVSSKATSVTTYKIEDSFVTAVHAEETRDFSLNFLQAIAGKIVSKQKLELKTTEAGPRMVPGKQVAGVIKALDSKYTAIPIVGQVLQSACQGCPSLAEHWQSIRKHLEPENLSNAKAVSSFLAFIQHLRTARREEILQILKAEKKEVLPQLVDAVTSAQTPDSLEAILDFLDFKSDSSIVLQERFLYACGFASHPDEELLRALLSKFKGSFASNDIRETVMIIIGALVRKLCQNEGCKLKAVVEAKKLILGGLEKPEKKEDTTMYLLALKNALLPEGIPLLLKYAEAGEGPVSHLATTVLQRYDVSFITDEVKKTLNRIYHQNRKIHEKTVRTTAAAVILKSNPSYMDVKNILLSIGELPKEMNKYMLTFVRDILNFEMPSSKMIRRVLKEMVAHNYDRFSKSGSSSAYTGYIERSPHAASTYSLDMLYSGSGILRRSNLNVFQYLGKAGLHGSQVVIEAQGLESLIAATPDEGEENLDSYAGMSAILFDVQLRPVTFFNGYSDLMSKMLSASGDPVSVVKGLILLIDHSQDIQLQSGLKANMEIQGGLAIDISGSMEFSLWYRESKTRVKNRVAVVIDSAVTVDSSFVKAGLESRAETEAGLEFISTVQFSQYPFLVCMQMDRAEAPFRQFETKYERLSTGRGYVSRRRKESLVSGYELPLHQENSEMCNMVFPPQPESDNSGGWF
Experimental: The inhibition of the activity of microsomal triglyceride transfer protein (MTP) was tested by using the following operating protocol.
The inhibition of MTP activity with a compound can be quantified by observing the inhibition of the transfer of a labelled triglyceride, from a donor particle to an acceptor particle, in the presence of MTP. The procedure for the preparation of MTP is based on the method by Wetterau and Zilversmit (Biochem. Biophys. Acta (1986) 875, 610). A few grams of golden hamster liver are taken and then rinsed several times in a 250 mM sucrose solution at 0° C. All the following steps proceed at +4° C. A homogenate at a concentration of 50% in 250 mM sucrose is prepared using a Teflon mill and then centrifuged for 10 minutes at 10 000×g at +4° C. The supernatant is then centrifuged at 105 000×g for 75 minutes at +4° C. The supernatant is discarded and the microsomal pellet is taken up in 3 ml (per g of starting liver) of Tris/HCl 150 mM pH 8.0. 1-ml aliquot fractions are stored at −80° C. until the time of use.
After thawing a fraction of microsomes (1 ml), 12 ml of refrigerated Tris/HCl 50 mM, KCl 50 mM, MgCl2 5 mM pH 7.4 buffers and 1.2 ml of deoxycholate (0.54% in water) are added. After incubation for 30 minutes at +4° C. with gentle agitation, the suspension is centrifuged at […] for 75 minutes. […]
The reaction mixture is prepared in untreated ½ well white plates (Corning Costar) by addition, in the following order, of: 5 μl of HEPES 50 mM, NaCl 150 mM, BSA 0.1% (w/v), 0.05% sodium azide (w/v), pH 7.4 buffer; 5 μl of liposomes; 5 μl of LDL-biot; 5 μl of test products in DMSO; 5 μl of MTP. After incubation for 18-24 hours at 37° C., the reaction is stopped adding 100 μl of Amersham SPA (Scintillation Proximity Assay) beads coupled to streptavidin, and the radioactivity is counted using a Top Count (Packard) machine at least one hour later. The inhibition of the transfer of the triglycerides with a compound is reflected by a reduction in the transferred radioactivity. […]

[2] = tested on: apo B secretion in HepG2 cells; assay: Inhibition of ApoB secretion in HepG2 cells, sandwich ELISA; assay type: cell-based; details: 24 hours incubation, ELISA specific for human apo B
Experimental: The activity of a compound according to the invention can be evaluated by measuring the inhibition of apo B secretion in HepG2 cells.
The HepG2 cells (ECACC No. 85011430) are used as model in the study of the in vitro hepatic secretion of lipoproteins (Dixon J. and Ginsberg H., J. Lipid. Res., 1993, 34, 167-179).
The HepG2 cells are cultured in Dulbecco's modified Eagle's medium comprising 10% foetal calf serum (DMEM and FBS-Gibco) in 96-well plates under an atmosphere of 5% carbon dioxide for 24 hours (about 70% confluence).
The test compounds are dissolved at a concentration of 2 or 10 mM in dimethyl sulfoxide (DMSO). Serial dilutions (1:3.16) are made in DMSO and are added (1:200—Robot Multimek Beckman) to the growth medium (200 μL) and then finally incubated for 24 hours in the various wells containing the HepG2 cells.
The 24-hour culture supernatant diluted to 1:5 (phosphate-buffered saline: PBS comprising 1% bovine serum albumin) is tested according to a sandwich-ELISA method specific for human apo B.
The results are expressed in terms of IC50, i.e. the concentration that produces a 50% inhibition of apo B secretion in the HepG2 cells.

| SMILES | IC50 [1] [nM] | IC50 [2] [nM] |
| --- | --- | --- |
| O=C(NCc1ccncc1)C(CCCCCn1cc(-c2ccccc2)c2cccnc21)C1CCCC1 (stereo not drawn) | 381 | 18 |
| CS(=O)(=O)c1ccc(CNC(=O)C(CCCCn2cc(-c3ccccc3)c3cccnc32)C2CCCCC2)cc1 (stereo not drawn) | 529 | 3 |
| O=C(NCc1ccccc1)C(CCCCn1cc(-c2ccccc2)c2cccnc21)C1CCCCCC1 (stereo not drawn) | 175 | 15 |

— US7838533B2, “Azaindole inhibitors of MTP and ApoB” (Merck Patent GmbH, priority 2004, dated 2010)
